Measurements taken from patent publication US20130337020A1, “Pharmaceutical Compositions” (Alpharma Pharmaceuticals LLC, priority 2006, published 2013).

Test system: opioid receptors
Details: cited from earlier work

Compound	antagonist potency relative to naltrexone [%]
Oc1ccc2c3c1O[C@H]1[C@H](O)CC[C@@]4(O)[C@@H](C2)N(CC2CC2)CC[C@]314 [6-β-naltrexol]	2 to 4

Test system: not given
Details: in comparison to a 15 mg dose of hydrocodone

Compound	Equianalgesic Doses of Opioids, Calculated Dose [mg]
COc1ccc2c3c1O[C@H]1[C@@H](O)C=C[C@H]4[C@@H](C2)N(C)CC[C@@]341 [Codeine]	90.0
COc1ccc2c3c1OC1C(=O)CC[C@H]4[C@@H](C2)N(C)CC[C@]314 (stereo partly shown) [Hydrocodone, 4,5-epoxy-3-methoxy-17-methylmorphinan-6-one]	15.0
CN1CC[C@]23CCCC[C@H]2[C@H]1Cc1ccc(O)cc13 [Levorphanol]	1.8
CCC(=O)C(CC(C)N(C)C)(c1ccccc1)c1ccccc1 (stereo not shown) [Methadone]	9.0
COc1ccc2c3c1OC1C(=O)CC[C@@]4(O)[C@@H](C2)N(C)CC[C@]314 (stereo partly shown) [Oxycodone, 4,5-epoxy-14-hydroxy-3-methoxy-17-methylmorphinan-6-one]	13.5
Meperidine	135.0
